Tests used:
Format in all cases: biochemical
[1] = test system: L-asparaginase THERMUS T-351 (ATCC No. 31,674); experiment: Asparaginase properties: inhibitors; conditions: inhibitor concentration not stated
[2] = test system: D-asparaginase THERMUS T-351 (ATCC No. 31,674); experiment: Asparaginase properties: Km and inhibitors; conditions: for Inhibitors: loss of activity: inhibitor concentration not stated
[3] = biological target: T1, L-asparaginase E. COLI (B) (for comparison) (Escherichia coli, UniProt P00805); experiment: Asparaginase properties: Km and inhibitors (for comparison); conditions: inhibitor concentration not stated
T1 sequence (P00805 23-348): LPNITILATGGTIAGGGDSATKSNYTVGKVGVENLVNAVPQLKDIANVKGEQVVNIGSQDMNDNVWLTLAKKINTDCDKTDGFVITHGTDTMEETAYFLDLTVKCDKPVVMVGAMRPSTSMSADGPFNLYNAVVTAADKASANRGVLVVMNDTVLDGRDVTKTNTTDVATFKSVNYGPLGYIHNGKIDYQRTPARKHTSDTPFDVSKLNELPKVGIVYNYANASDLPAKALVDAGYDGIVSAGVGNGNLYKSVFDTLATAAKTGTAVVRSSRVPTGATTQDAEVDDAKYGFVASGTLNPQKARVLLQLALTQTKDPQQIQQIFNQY

SMILES | Inhibitors: loss of activity [1] | Inhibitors: loss of activity [2] | Inhibitors: loss of activity [3] | Km ([2]; substrate not given, enzyme specific only for D-asparagine)
CC(N)=O [Acetamide] | No loss of activity | 100% | No loss of activity | 
NC(=O)C[C@@H](N)C(=O)O [D-asparagine] |  |  |  | 20 mM
O=C(O)c1cc[c]([Hg][Cl])cc1 [pCMB] | 100% | No loss of activity | No loss of activity | 
